Measured values taken from US11786466B2, “Topical formulations for treating dermatological disorders including male pattern baldness” (XYON HEALTH INC., priority 2017, dated 2023).

Assays:
[1] = test system: 5-α-reductase; settings: cited from earlier work
[2] = In vitro skin permeation, modified Franz-type diffusion cell; type: in vitro ADME; settings: human epidermis, receiver compartment, n = 5
Protocol: An original Franz-type diffusion cell system was modified to accommodate widened vertical columns and removal of the bowl shape. The diffusion area was 0.636 cm^2 with a receiver capacity of approximately 3.0 mL. The receiver volume for each cell was individually calibrated.
Human epidermis samples were prepared according to standard protocols. […] The samples were used as a membrane between the two chambers in the Franz cells. After about 6-8 hours, fat cells were carefully removed from the full thickness skin. The skin sections were cut into 2.5×2.5 cm squares, sealed in aluminum foil and frozen at −20° C. Prior to preparation, the samples were thawed to room temperature, immersed in 60° C. water, and the epidermis was gently separated from the remaining tissue with forceps and allowed to dry.
Before being mounted on the Franz cell, each epidermal sheet was visually inspected to avoid any possible defects. Additionally, the electrical resistance of isolated epidermis was measured to ensure the integrity of the barrier membrane. Epidermis samples with a resistance above 18 kΩ/cm^3 were used for experiments.
The upper and lower parts of the Franz cell were sealed with paraffin film and fastened together by a clamp. […]
Dutasteride concentration was determined using LC/MS-MS according to the following parameters: […]

[3] = test system: dihydrotestosterone (DHT); settings: cited from earlier work
[4] = after sustained oral administration

| Compound | Inhibition of the three 5-α-reductase isoforms [1] | Permeated Amount After 24 hours (dutasteride) [2] | Suppression of DHT production [3, 4] | Inhibition of Type I 5-α-reductase [1] | Inhibition of Type II and Type III 5-α-reductase [1] | Reduction of serum DHT levels [3, 4] | Typical reduction in DHT serum concentration ([3]; oral finasteride therapy, comparison value) |
| --- | --- | --- | --- | --- | --- | --- | --- |
| C[C@]12C=CC(=O)N[C@@H]1CC[C@@H]1[C@@H]2CC[C@]2(C)[C@@H](C(=O)Nc3cc(C(F)(F)F)ccc3C(F)(F)F)CC[C@@H]12 [Dutasteride] | inhibits all three 5-α-reductase isoforms | never detected | up to 99% | – | – | – | – |
| CC(C)(C)NC(=O)[C@H]1CC[C@H]2[C@@H]3CC[C@H]4NC(=O)C=C[C@]4(C)[C@H]3CC[C@]12C [Finasteride] | – | – | – | does not inhibit | selectively inhibits | 65-70% | 60-70% |
